This passage reports EC50 results from patent US8895504B2, “Amylin derivatives” (priority 2008, dated 2014).

Molecules are shown by their SMILES. *1 amine or outer side, *2 acyl side, *3 side chain or, on linkers, in order; H or OH if unused. Where a SMILES comes first, the peptide text is derived from it. Bridges are numbered along the chain shown (N, C = ends). The star is where a group is joined. C20 diacid = O=C(O)CCCCCCCCCCCCCCCCCCC(=O)*; C18 diacid = O=C(O)CCCCCCCCCCCCCCCCC(=O)*; PEG8 = NCCOCCOCCOCCOCCOCCOCCOCCOCCC(=O)O; γGlu = O=C(O)[C@H](CCC(=O)[*:2])N[*:1]

This test addresses T1, Amylin 3(a) receptor (human calcitonin receptor (CTa) and RAMP-3) (Homo sapiens, UniProt O60896+P30988).
T1 construct: expressed in transfected cells; host or cells: BHK570 cells, stably transfected with a CRE-luciferase reporter
Nature of the test: Luciferase assay (III), BHK Amylin 3(a)//CRE-luc cells. The test is classed as cell-based. The settings on record: BHK cells with Amylin 3(a) receptor and CRE luciferase reporter, 4 hours incubation; read-out: Potency Luciferase. An outline of the steps: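 Read-out is CRE-driven luciferase luminescence, taken 30 min after LucLite addition at room temperature. Compounds were incubated 4 h at 37° C in assay medium (10% FBS, 10 mM Hepes, pH 7,4). The cell line is BHK570 co-transfected with human calcitonin receptor CTa and RAMP-3, seeded overnight before use.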

T1 sequence (O60896 24-148): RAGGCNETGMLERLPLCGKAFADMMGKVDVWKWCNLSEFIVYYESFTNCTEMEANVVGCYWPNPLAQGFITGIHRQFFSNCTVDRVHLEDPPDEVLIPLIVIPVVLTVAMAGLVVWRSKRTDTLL
T1 sequence (P30988 25-474): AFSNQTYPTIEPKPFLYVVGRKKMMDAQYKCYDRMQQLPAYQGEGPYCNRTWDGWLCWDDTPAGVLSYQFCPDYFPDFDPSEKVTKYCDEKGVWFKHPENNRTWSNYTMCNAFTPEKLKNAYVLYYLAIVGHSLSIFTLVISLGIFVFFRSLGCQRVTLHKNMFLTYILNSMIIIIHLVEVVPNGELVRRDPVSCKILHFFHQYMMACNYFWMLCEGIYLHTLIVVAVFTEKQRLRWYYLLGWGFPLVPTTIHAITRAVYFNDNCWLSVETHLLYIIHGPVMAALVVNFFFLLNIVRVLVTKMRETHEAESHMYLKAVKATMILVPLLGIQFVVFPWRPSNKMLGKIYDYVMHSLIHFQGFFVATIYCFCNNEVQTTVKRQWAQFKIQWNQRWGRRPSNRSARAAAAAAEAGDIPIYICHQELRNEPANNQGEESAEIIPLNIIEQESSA

Regarding `CC(C)C[C@H](NC(=O)[C@H](CCCNC(=N)N)NC(=O)[C@H](CCC(N)=O)NC(=O)[C@@H](NC(=O)[C@H](C)NC(=O)[C@@H]1CSSC[C@H](NC(=O)[C@H](CCC(=O)O)NC(=O)[C@H](CCCNC(=N)N)NC(=O)[C@H](CCC(=O)O)NC(=O)CC[C@H](NC(=O)CCCCCCCCCCCCCCCCCCC(=O)O)C(=O)O)C(=O)N[C@@H](CC(N)=O)C(=O)N[C@@H]([C@@H](C)O)C(=O)N[C@@H](C)C(=O)N[C@@H]([C@@H](C)O)C(=O)N1)[C@@H](C)O)C(=O)N[C@@H](C)C(=O)N[C@@H](CC(N)=O)C(=O)N[C@@H](Cc1ccccc1)C(=O)N[C@@H](CC(C)C)C(=O)N[C@@H](CCCNC(=N)N)C(=O)N[C@@H](Cc1c[nH]cn1)C(=O)N[C@@H](CO)C(=O)N[C@@H](CO)C(=O)N[C@@H](CC(N)=O)C(=O)N[C@@H](CC(N)=O)C(=O)N[C@@H](Cc1ccccc1)C(=O)NCC(=O)N[C@@H](C)C(=O)N1CCC[C@H]1C(=O)N[C@@H](CC(C)C)C(=O)N[C@@H](CO)C(=O)N[C@@H](CO)C(=O)N[C@H](C(=O)N[C@@H](CC(N)=O)C(=O)N[C@H](C(=O)NCC(=O)N[C@@H](CO)C(=O)N[C@@H](CC(N)=O)C(=O)N[C@H](C(=O)N[C@@H](Cc1ccc(O)cc1)C(N)=O)[C@@H](C)O)C(C)C)[C@@H](C)O` [Example 46, N-alpha-[(S)-4-Carboxy-4-(19-carboxynonadecanoylamino)butyryl]-Glu-Arg-[Glu1,Arg17,Ala25,Pro26,Ser28,Ser29]-pramlintide] ({C20 diacid-γGlu}-ERECNTATCATQRLANFLRHSSNNFGAPLSSTNVGSNTY-NH2; disulfide 4-9), the EC50 stood at 0.2 nM.
For `CC(C)C[C@H](NC(=O)[C@H](CCCNC(=N)N)NC(=O)[C@H](CCC(N)=O)NC(=O)[C@@H](NC(=O)[C@H](C)NC(=O)[C@@H]1CSSC[C@H](NC(=O)[C@H](CCC(=O)O)NC(=O)[C@H](CCCNC(=N)N)NC(=O)[C@H](CCC(=O)O)NC(=O)CC[C@H](NC(=O)CCCCCCCCCCCCCCCCCCC(=O)O)C(=O)O)C(=O)N[C@@H](CC(N)=O)C(=O)N[C@@H]([C@@H](C)O)C(=O)N[C@@H](C)C(=O)N[C@@H]([C@@H](C)O)C(=O)N1)[C@@H](C)O)C(=O)N[C@@H](C)C(=O)N[C@@H](CC(=O)O)C(=O)N[C@@H](Cc1ccccc1)C(=O)N[C@@H](CC(C)C)C(=O)N[C@@H](Cc1c[nH]cn1)C(=O)N[C@@H](Cc1c[nH]cn1)C(=O)N[C@@H](CO)C(=O)N[C@@H](CO)C(=O)N[C@@H](CCC(N)=O)C(=O)N[C@@H](CC(N)=O)C(=O)N[C@@H](Cc1ccccc1)C(=O)NCC(=O)N[C@@H](C)C(=O)N1CCC[C@H]1C(=O)N[C@@H](CC(C)C)C(=O)N[C@@H](CO)C(=O)N[C@@H](CO)C(=O)N[C@H](C(=O)N[C@@H](CC(N)=O)C(=O)N[C@H](C(=O)NCC(=O)N[C@@H](CO)C(=O)N[C@@H](CC(N)=O)C(=O)N[C@H](C(=O)N[C@@H](Cc1ccc(O)cc1)C(N)=O)[C@@H](C)O)C(C)C)[C@@H](C)O` [Example 48, N-alpha-[(S)-4-Carboxy-4-(19-carboxynonadecanoylamino)butyryl]-Glu-Arg-[Glu1,Asp14,His17,Gln21,Ala25,Pro26,Ser28,Ser29]-pramlintide] ({C20 diacid-γGlu}-ERECNTATCATQRLADFLHHSSQNFGAPLSSTNVGSNTY-NH2; disulfide 4-9), the EC50 came out at 0.06 nM.
On to `CC[C@H](C)[C@H](NC(=O)[C@@H]1CCCN1C(=O)CNC(=O)[C@H](Cc1ccccc1)NC(=O)[C@H](CC(N)=O)NC(=O)[C@H](CC(N)=O)NC(=O)[C@H](CO)NC(=O)[C@H](CO)NC(=O)[C@H](Cc1c[nH]cn1)NC(=O)[C@H](CCCNC(=N)N)NC(=O)[C@H](CC(C)C)NC(=O)[C@H](Cc1ccccc1)NC(=O)[C@H](CC(N)=O)NC(=O)[C@H](C)NC(=O)[C@H](CC(C)C)NC(=O)[C@H](CCCNC(=N)N)NC(=O)[C@H](CCC(N)=O)NC(=O)[C@@H](NC(=O)[C@H](C)NC(=O)[C@@H]1CSSC[C@H](NC(=O)[C@H](CCC(=O)O)NC(=O)[C@H](CCC(=O)O)NC(=O)CC[C@H](NC(=O)CCCCCCCCCCCCCCCCCCC(=O)O)C(=O)O)C(=O)N[C@@H](CC(N)=O)C(=O)N[C@@H]([C@@H](C)O)C(=O)N[C@@H](C)C(=O)N[C@@H]([C@@H](C)O)C(=O)N1)[C@@H](C)O)C(=O)N[C@@H](CC(C)C)C(=O)N1CCC[C@H]1C(=O)N1CCC[C@H]1C(=O)N[C@H](C(=O)N[C@@H](CC(N)=O)C(=O)N[C@H](C(=O)NCC(=O)N[C@@H](CO)C(=O)N[C@@H](CC(N)=O)C(=O)N[C@H](C(=O)N[C@@H](Cc1ccc(O)cc1)C(N)=O)[C@@H](C)O)C(C)C)[C@@H](C)O` [Example 49, N-alpha-[(S)-4-Carboxy-4-(19-carboxynonadecanoylamino)butyryl]-Glu-[Glu1,Arg17]-pramlintide] ({C20 diacid-γGlu}-EECNTATCATQRLANFLRHSSNNFGPILPPTNVGSNTY-NH2; disulfide 3-8), for which the EC50 worked out at 0.3 nM.
Regarding `CC[C@H](C)[C@H](NC(=O)[C@@H]1CCCN1C(=O)CNC(=O)[C@H](Cc1ccccc1)NC(=O)[C@H](CC(N)=O)NC(=O)[C@H](CC(N)=O)NC(=O)[C@H](CO)NC(=O)[C@H](CO)NC(=O)[C@H](Cc1c[nH]cn1)NC(=O)[C@H](Cc1c[nH]cn1)NC(=O)[C@H](CC(C)C)NC(=O)[C@H](Cc1ccccc1)NC(=O)[C@H](CC(N)=O)NC(=O)[C@H](C)NC(=O)[C@H](CC(C)C)NC(=O)[C@H](CCCNC(=N)N)NC(=O)[C@H](CCC(N)=O)NC(=O)[C@@H](NC(=O)[C@H](C)NC(=O)[C@@H]1CSSC[C@H](NC(=O)[C@H](CCC(=O)O)NC(=O)[C@H](CCC(=O)O)NC(=O)CC[C@H](NC(=O)CCCCCCCCCCCCCCCCCCC(=O)O)C(=O)O)C(=O)N[C@@H](CC(N)=O)C(=O)N[C@@H]([C@@H](C)O)C(=O)N[C@@H](C)C(=O)N[C@@H]([C@@H](C)O)C(=O)N1)[C@@H](C)O)C(=O)N[C@@H](CC(C)C)C(=O)N1CCC[C@H]1C(=O)N1CCC[C@H]1C(=O)N[C@H](C(=O)N[C@@H](CC(N)=O)C(=O)N[C@H](C(=O)NCC(=O)N[C@@H](CO)C(=O)N[C@@H](CC(N)=O)C(=O)N[C@H](C(=O)N[C@@H](Cc1ccc(O)cc1)C(N)=O)[C@@H](C)O)C(C)C)[C@@H](C)O` [Example 50, N-alpha-[(S)-4-Carboxy-4-(19-carboxynonadecanoylamino)butyryl]-Glu-[Glu1,His17]-pramlintide] ({C20 diacid-γGlu}-EECNTATCATQRLANFLHHSSNNFGPILPPTNVGSNTY-NH2; disulfide 3-8), the EC50 is 0.3 nM.
Take `CC[C@H](C)[C@H](NC(=O)[C@@H]1CCCN1C(=O)CNC(=O)[C@H](Cc1ccccc1)NC(=O)[C@H](CC(N)=O)NC(=O)[C@H](CC(N)=O)NC(=O)[C@H](CO)NC(=O)[C@H](CO)NC(=O)[C@H](Cc1c[nH]cn1)NC(=O)[C@H](Cc1c[nH]cn1)NC(=O)[C@H](CC(C)C)NC(=O)[C@H](Cc1ccccc1)NC(=O)[C@H](CC(N)=O)NC(=O)[C@H](C)NC(=O)[C@H](CC(C)C)NC(=O)[C@H](CCCNC(=N)N)NC(=O)[C@H](CCC(N)=O)NC(=O)[C@@H](NC(=O)[C@H](C)NC(=O)[C@@H]1CSSC[C@H](NC(=O)[C@H](CCC(=O)O)NC(=O)CC[C@H](NC(=O)CCCCCCCCCCCCCCCCCCC(=O)O)C(=O)O)C(=O)N[C@@H](CC(N)=O)C(=O)N[C@@H]([C@@H](C)O)C(=O)N[C@@H](C)C(=O)N[C@@H]([C@@H](C)O)C(=O)N1)[C@@H](C)O)C(=O)N[C@@H](CC(C)C)C(=O)N1CCC[C@H]1C(=O)N1CCC[C@H]1C(=O)N[C@H](C(=O)N[C@@H](CC(N)=O)C(=O)N[C@H](C(=O)NCC(=O)N[C@@H](CO)C(=O)N[C@@H](CC(N)=O)C(=O)N[C@H](C(=O)N[C@@H](Cc1ccc(O)cc1)C(N)=O)[C@@H](C)O)C(C)C)[C@@H](C)O` [Example 51, N-alpha-[(S)-4-Carboxy-4-(19-carboxynonadecanoylamino)butyryl]-[Glu 1,His17]-pramlintide] ({C20 diacid-γGlu}-ECNTATCATQRLANFLHHSSNNFGPILPPTNVGSNTY-NH2; disulfide 2-7): the EC50 turned out to be 0.2 nM.
As for `CC[C@H](C)[C@H](NC(=O)[C@@H]1CCCN1C(=O)CNC(=O)[C@H](Cc1ccccc1)NC(=O)[C@H](CC(N)=O)NC(=O)[C@H](CC(N)=O)NC(=O)[C@H](CO)NC(=O)[C@H](CO)NC(=O)[C@H](Cc1c[nH]cn1)NC(=O)[C@H](Cc1c[nH]cn1)NC(=O)[C@H](CC(C)C)NC(=O)[C@H](Cc1ccccc1)NC(=O)[C@H](CC(N)=O)NC(=O)[C@H](C)NC(=O)[C@H](CC(C)C)NC(=O)[C@H](CCCNC(=N)N)NC(=O)[C@H](CCC(N)=O)NC(=O)[C@@H](NC(=O)[C@H](C)NC(=O)[C@@H]1CSSC[C@H](NC(=O)[C@H](CCCNC(=N)N)NC(=O)CCOCCOCCOCCOCCOCCOCCOCCOCCNC(=O)CC[C@H](NC(=O)CCCCCCCCCCCCCCCCC(=O)O)C(=O)O)C(=O)N[C@@H](CC(N)=O)C(=O)N[C@@H]([C@@H](C)O)C(=O)N[C@@H](C)C(=O)N[C@@H]([C@@H](C)O)C(=O)N1)[C@@H](C)O)C(=O)N[C@@H](CC(C)C)C(=O)N1CCC[C@H]1C(=O)N1CCC[C@H]1C(=O)N[C@H](C(=O)N[C@@H](CC(N)=O)C(=O)N[C@H](C(=O)NCC(=O)N[C@@H](CO)C(=O)N[C@@H](CC(N)=O)C(=O)N[C@H](C(=O)N[C@@H](Cc1ccc(O)cc1)C(N)=O)[C@@H](C)O)C(C)C)[C@@H](C)O` [Example 52, N-alpha-[3-(2-{2-[2-(2-{2-[2-(2-{2-[(S)-4-Carboxy-4-(17-carboxyheptadecanoylamino)butyrylamino]ethoxy}ethoxy)ethoxy]ethoxy}ethoxy)ethoxy]ethoxy}ethoxy)propionylamino][Arg1,His17]-pramlintide] ({C18 diacid-γGlu-PEG8}-RCNTATCATQRLANFLHHSSNNFGPILPPTNVGSNTY-NH2; disulfide 2-7), the EC50 stood at 0.08 nM.
